Where a SMILES comes first, the peptide text is derived from it. [ ]: non-standard residue; d: D form. dPhe(4-Cl) = N[C@H](Cc1ccc(Cl)cc1)C(=O)O; d2Nal = N[C@H](Cc1ccc2ccccc2c1)C(=O)O; dCit = NC(=O)NCCC[C@@H](N)C(=O)O; d3Pal = N[C@H](Cc1cccnc1)C(=O)O
Test system: placenta
Test: Quantitative RT-PCR of E19.5 placental tissue
Format: in vivo, mouse
Settings: dams i.p. AMH + GnRH antag E16.5-E18.5; placenta E19.5
Description: PAMH+GnRH antag. (FIG. 3D) Schematic representation of tail-tip blood sampling in adult diestrus female mice (3-4 months old). (FIG. 3E) Tail blood was collected every 10 min for 2 h and LH measured from 10 a.m-12 p.m in adult (P60) diestrus females (Control, n=8; PAMH, n=10; PAMH+GnRH antag, n=9; One-way ANOVA and Tukey's multiple comparison post hoc test, F(2,24)=57.06, *P<0.05, ***P<0.0001). Bars from left to right: Control, PAMH, PAMH+GnRH antag. (FIGS. 2F-1, 2F-2, 2F-3) Representative graphs for LH pulsatility over 2-hr in one female adult (P60) mouse of each treatment. Asterisks in (FIG. 3F) indicate the number of LH pulses/2-hr. (FIG. 3G) Mean circulating testosterone and LH levels were analyzed in pregnant PBS-treated (n=4) and AMH-treated (n=4) dams at embryonic day (E) 19.5 of gestation. […] (FIG. 3H) Relative mRNA expression of placental Cyp191a (aromatase) in control (n=4) and AMH (n=4)-treated pregnant animals at E19.5. Cyp191a expression in the placenta is […] in AMH-treated pregnant dams as compared to control-treated pregnant dams (Unpaired Student's t-test, t(6)=5.414, **P<0.005). Values are expressed as relative to the mean of each treatment. All values are expressed as mean±s.e.m. (FIGS. 3I-1, 3I-2, 3I-3, 3I-4) Dams were injected from E16.5 to E18.5 with either PBS (vehicle, n=9-11), AMH (n=8-10), AMH+GnRH antag (n=5) and trunk blood was collected at E19.5 for hormonal measurements by ELISA. Data were combined from at least two independent experiments. In FIGS. 3I-1, 3I-2, 3I-3, 3I-4: left bar: vehicle; middle bar: AMH; right bar: AMH+GnRH antagonist. (FIGS. 3J-1, 3J-2, 3J-3, 3J-4)) Real-time PCR analysis of expression levels of AMHR2, CYP191A (cytochrome P450 family 19A1, aromatase), CYP11A1 (cytochrome P450 family 11A1), HSD3B1 (3beta-hydroxysteroid dehydrogenase/delta(5)-delta(4)isomerase type I or hydroxy-delta-5-steroid dehydrogenase) mRNA in the placenta of E19.5 dams. Dams were injected i.p. from E16.5 to E18.5 with either PBS (vehicle, n=8-17), AMH (n=7-11), or AMH+GnRH antag (n=8-13). Data were combined from three independent experiments. […] In FIGS. 3J-1, 3J-2, 3J-3, 3J-4: left bar: vehicle; middle bar: AMH; right bar: AMH+GnRH antagonist.
E19.5 placental tissue from female control and PAMH embryos was isolated for total RNA was using Trizol (ThermoFisher Scientific, Cat #15596026) and the RNeasy Lipid Tissue Mini Kit (Qiagen; Cat #74804) using the manufacturer's instructions. For gene expression analyses, mRNAs […] from E19.5 placental tissue were reverse transcribed using SuperScript® IV Reverse Transcriptase (Life Technologies). Real-time PCR was carried out on Applied Biosystems 7900HT Fast Real-Time PCR system using exon-boundary-specific TaqMan® Gene Expression Assays (Applied Biosystems): Amhr2 (AMHR2-Mm00513847_m1); Cyp19a1 (Cyp19a1-Mm00484049_m1); Cyp11a1 (Cyp11a1-Mm00490735_m1); HSD3b1 (Hsd3b1-Mm01261921_mH); GnRH (Gnrh-Mm01315604_m1); GnRH-R (Gnrhr-Mm00439143_m1); LH-R (Lhcgr-Mm00442931_m1). Control housekeeping genes: ActB (ActB-Mm00607939_s1); GAPDH (GAPDH-Mm99999915_g1).
Quantitative RT-PCR was performed using TaqMan® Low-Density Arrays (Applied Biosystems) on an Applied Biosystems thermocycler using the manufacturer's recommended cycling conditions. Gene expression data were analyzed using SDS 2.4.1 and Data Assist 3.01 software (Applied Biosystems), with ActB and GAPDH as control house-keeping mRNA following a standardized procedure. […]

For `CC(=O)N[C@H](Cc1ccc2ccccc2c1)C(=O)N[C@H](Cc1ccc(Cl)cc1)C(=O)N[C@H](Cc1cccnc1)C(=O)N[C@@H](CO)C(=O)N[C@@H](Cc1ccc(O)cc1)C(=O)N[C@H](CCCNC(N)=O)C(=O)N[C@@H](CC(C)C)C(=O)N[C@@H](CCCNC(=N)N)C(=O)N1CCC[C@H]1C(=O)N[C@H](C)C(N)=O` [Cetrorelix acetate, Ac-D-2Nal-D-Phe(4-Cl)-D-3Pal-Ser-Tyr-D-Cit-Leu-Arg-Pro-D-Ala-NH2] (Ac-[d2Nal][dPhe(4-Cl)][d3Pal]SY[dCit]LRP[dA]-NH2), the “AMH-driven downregulation of placental HSD3B1 gene expression” value was “prevented the downregulation”, the “AMH-driven inhibition of placental CYP19A1 mRNA” value was “prevented” and the “placental CYP11A1 expression” value was “did not find any difference”. For the same molecule, the “placental LHR expression” value was “normalized” and the “placental expression of GnRH and GnRHR” value was “unchanged”.

Source: US12208130B2, “Treatment of women affected with polycystic ovary syndrome” (INSTITUT NATIONAL DE LA SANTE ET DE LA RECHERCHE MEDICALE …, priority 2017, dated 2025)
